Entries after “also recorded” stand apart in the source; their conditions may differ. Structures can show the parent of a compound that is named as a salt. Where two headings read alike, the source gives them in different places.
Tests used:
NF-M17 = assay: CD titration of NF-M17 peptide/aluminum with silicon compounds (Example 1); assay type: biochemical, human
A-beta1-42 peptide [1] = assay type: biochemical, human
A-beta1-42 peptide [2] = biological target: T1, A-beta1-42 peptide (Homo sapiens, UniProt P05067); assay type: biochemical
[3] = tested on: peptide 1 (A-beta1-42 peptide); assay: CD titration of iron-complexed peptide 1 with silanes (Example 9); assay type: biochemical, human
Caco-2 cells [4] = tested on: Caco-2 cells
A-beta1-42 peptide [5] = biological target: T1, A-beta1-42 peptide; assay type: biochemical; remark: listed apart in the source
in vitro = conditions: human, Caco-2
Caco-2 cells [6] = conditions: for Permeation Coefficient (cm/sec) Mean ± SD, where applicable: human
A-beta antigen = assay: Slot blot of A-beta antigen extracted from Alzheimer's brain tissue sections (Example 8); set-up: species or system human

T1 sequence (P05067 672-713): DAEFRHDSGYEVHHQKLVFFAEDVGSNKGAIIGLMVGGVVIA

C[Si](Cl)(Cl)c1ccccc1 [MPDS, methylphenyldichlorosilane]
Restore original spectra? (NF-M17): Yes
equivalents at which the CD spectrum of NF-M17/aluminum was restored to its original shape (NF-M17): around 32 equivalents

O.O.O.O.O.O.O.O.O.O=[Si]([O-])[O-].[Na+].[Na+] [sodium metasilicate, sodium metasilicate nonahydrate, reference compound]
equivalents at which the CD curve began to return / showed some return to its original shape (NF-M17; NF-M17 with 8 equivalents of aluminum): about 32 equivalents

CC(C)(C)[Si](C)(C)O [TBDMS, tert-butyldimethylsilanol]
Restore original spectra? (NF-M17): No
restoration of the CD spectrum of NF-M17/aluminum to its original shape (NF-M17): did not restore

CCCCCC[Si](C)(Cl)Cl [HMDS, hexylmethyldichlorosilane]
Restore original spectra? (NF-M17): Yes
equivalents at which the CD spectrum of NF-M17/aluminum was restored to its original shape (NF-M17): around 32 equivalents
restoration of the original CD spectrum of A-beta1-42 peptide after exposure to aluminum (A-beta1-42 peptide [1]): at least partially restored

O[Si](O)(c1ccccc1)c1ccccc1 [DPSD, diphenylsilandiol]
Restore original spectra? (NF-M17; CD spectrum of NF-M17 with 8 equivalents of aluminum, in TFE): (DMSO interfered with spectra)
restoration of the CD spectrum of NF-M17/aluminum to its original shape (NF-M17; NF-M17 with 8 equivalents of aluminum, in TFE): did not restore

CN(C)[Si](N(C)C)(N(C)C)N(C)C [tetrakis, tetrakis(dimethylamino)silane]
restoration of the original CD spectrum of A-beta1-42 peptide after exposure to aluminum (A-beta1-42 peptide [1]): at least partially restored

[Fe+2] [iron (II)]
effect of the metal on the A-beta1-42 CD spectrum (A-beta1-42 peptide [2]): minor or no effects

Aluminum
effect of the metal on the A-beta1-42 CD spectrum (A-beta1-42 peptide [2]): decreases with higher concentrations; also recorded: strong effects

C[Si](O)(O)CCCC#N [3f, (dihydroxy)methyl(3-cyanopropyl)silane]
return of the helical CD spectrum on titration of iron-complexed peptide 1 [3]: dosage effect is evident, but non-linear
titration point showing the greatest degree of recovery [3]: 0.25 eq.

N#CCCC[Si](Cl)(Cl)Cl [CPTCS, 3-cyanopropyltrichlorosilane]
Restore original spectra? (NF-M17): Yes
equivalents at which the CD spectrum of NF-M17/aluminum was restored to its original shape (NF-M17): around 32 equivalents
reversal of the effect of aluminum on the CD spectrum of A-beta1-42 (A-beta1-42 peptide [1]): Moderate reversal; also recorded: almost full reversal

CC(C)[Si](Cl)(Cl)C(C)C [DCDIPS, dichlorodiisopropylsilane]
Restore original spectra? (NF-M17): Yes
equivalents at which the CD spectrum of NF-M17/aluminum was restored to its original shape (NF-M17): around 32 equivalents
restoration of the original CD spectrum of A-beta1-42 peptide after exposure to aluminum (A-beta1-42 peptide [1]): at least partially restored

dichlorosilacyclobutane [DCSCB]
restoration of the original CD spectrum of A-beta1-42 peptide after exposure to aluminum (A-beta1-42 peptide [1]): at least partially restored
transport across Caco-2 cells (Caco-2 cells [4]): significant amount of transport

[Zn] [Zinc]
effect of the metal on the A-beta1-42 CD spectrum (A-beta1-42 peptide [2]): minor or no effects

C[Si](Cl)(Cl)CCC#N [CEMS, 2-cyanoethylmethyldichlorosilane]
protection of the helical structure of A-beta1-42 against amyloid formation by aluminum (III) (A-beta1-42 peptide [5]): protection of the helical structure
Papp A→B (in vitro): 4.6 ×10⁻⁶ cm/s

CC[Si](Cl)(Cl)CC [DCDES, dichlorodiethylsilane]
Restore original spectra? (NF-M17): Yes
equivalents at which the CD spectrum of NF-M17/aluminum was restored to its original shape (NF-M17): around 32 equivalents
restoration of the original CD spectrum of A-beta1-42 peptide after exposure to aluminum (A-beta1-42 peptide [1]): at least partially restored

[Fe+3] [iron (III)]
effect of the metal on the A-beta1-42 CD spectrum (A-beta1-42 peptide [2]): strong effects

(dichloro)methylsilylbutyronitrile [DCMSBN]
Restore original spectra? (NF-M17): Yes
equivalents at which the CD spectrum of NF-M17/aluminum was restored to its original shape (NF-M17): around 32 equivalents
restoration of the original CD spectrum of A-beta1-42 peptide after exposure to aluminum (A-beta1-42 peptide [1]): at least partially restored
relative transport across Caco-2 cells (FIG. 29B vs FIG. 29A) (Caco-2 cells [4]): more transport
transport across Caco-2 cells (Caco-2 cells [4]): significant amount of transport

CCCCCCCC[Si](Cl)(Cl)Cl [OTCS, n-octyltrichlorosilane]
Restore original spectra? (NF-M17): (gelation of OTCS)
restoration of the CD spectrum of NF-M17/aluminum to its original shape (NF-M17): did not restore

[Cu] [copper]
effect of the metal on the A-beta1-42 CD spectrum (A-beta1-42 peptide [2]): strong effects

trihydroxysilylmethyl phosphonate [TSMP]
permeation of Caco-2 cells relative to mannitol (Caco-2 cells [6]; Caco-2): slower permeation than mannitol

CC[Si](O)(CC)CC [TES, triethylsilanol]
Restore original spectra? (NF-M17): No
restoration of the CD spectrum of NF-M17/aluminum to its original shape (NF-M17): did not restore
restoration of the original CD spectrum of A-beta1-42 peptide after exposure to aluminum (A-beta1-42 peptide [1]): at least partially restored

CC(C#N)C[Si](C)(Cl)Cl (centres unmarked) [CPMS, 2-cyanopropylmethyldichlorosilane]
Total Extracted (A-beta antigen): 6.0 fmol
extraction of A-beta antigen from Alzheimer's tissue (A-beta antigen): no detectable antigen
Papp A→B (in vitro): 6.1 ×10⁻⁶ cm/s

CCC(C#N)C[Si](C)(Cl)Cl (centres unmarked) [CBMS, 2-cyanobutylmethyldichlorosilane]
Total Extracted (A-beta antigen): 5.2 fmol
Papp A→B (in vitro): 6.5 ×10⁻⁶ cm/s

triethoxysilylpropionitrile [TESP]
restoration of the original CD spectrum of A-beta1-42 peptide after exposure to aluminum (A-beta1-42 peptide [1]): at least partially restored

Cl [HCl, hydrochloric acid, reference compound]
extraction of A-beta antigen from Alzheimer's tissue (A-beta antigen): no detectable antigen
reversing the helix-coil transition by acid [3]: effective for reversing the helix-coil transition

NCCC[Si](O)(O)O [APST, 3-aminopropylsilantriol]
Restore original spectra? (NF-M17): Yes
chelation of aluminum compared to sodium orthosilicate (NF-M17): improved chelation
restoration of the CD spectrum of NF-M17/aluminum to its original shape (NF-M17): able to restore

CC(=O)O[Si](OC(C)=O)(OC(C)=O)OC(C)=O [TAS, tetraacetooxysilane]
restoration of the original CD spectrum of A-beta1-42 peptide after exposure to aluminum (A-beta1-42 peptide [1]): at least partially restored

C[Si](Cl)(Cl)CC[Si](C)(Cl)Cl [compound 1042, 1,2-(methyldichlorosilyl)ethane]
Total Extracted (A-beta antigen; Braak V tissue, 1 h at room temperature, corrected for volume dilution): 14.0 fmol
share of total antigen released to the extract (A-beta antigen; based on the intensity from urea-solubilized tissues): approximately 12%
crossing of the epithelial barrier in the Caco-2 model (Caco-2 cells [6]; Caco-2): crossed the epithelial barrier efficiently
permeation of Caco-2 cells relative to mannitol (Caco-2 cells [6]; Caco-2): at least four times greater
Permeation Coefficient (cm/sec) Mean ± SD, where applicable (Caco-2 cells [6]; Caco-2, 60 min, 20 mM): 2.5 × 10^−5 (n = 2) cm/sec

CC[Si](O)(CC)Cc1ccccc1 [BDS, benzyldiethylsilanol]
Restore original spectra? (NF-M17): No
restoration of the CD spectrum of NF-M17/aluminum to its original shape (NF-M17): did not restore

C1CC[Si]2(CCCCO2)OC1 [SDSU, 1,7-dioxa-6-sila-spiro[5.5]undecane]
restoration of the original CD spectrum of A-beta1-42 peptide after exposure to aluminum (A-beta1-42 peptide [1]): at least partially restored
transport across Caco-2 cells (Caco-2 cells [4]): significant amount of transport

triethoxysilylbutyronitrile [TESB]
restoration of the original CD spectrum of A-beta1-42 peptide after exposure to aluminum (A-beta1-42 peptide [1]): at least partially restored; also recorded: reverses aluminum-induced denaturation
relative transport across Caco-2 cells (FIG. 29B vs FIG. 29A) (Caco-2 cells [4]): more transport
transport across Caco-2 cells (Caco-2 cells [4]): significant amount of transport
permeation of Caco-2 cells relative to mannitol (Caco-2 cells [6]; Caco-2): at least four times greater
Permeation Coefficient (cm/sec) Mean ± SD, where applicable (Caco-2 cells [6]; Caco-2): 3.0 × 10^−5 (n = 2) cm/sec
